Tests used:
Assay in all cases: relative viability (nuclei count vs DMSO), 5 days (fraction); higher = more cells survive
[1] = compound: CN(C)CC1=CC(=CC=C1)N=C(C2=CC=CC=C2)C3=C(NC4=C3C=CC(=C4)C(=O)N(C)C)O + Cc1nc(Nc2ncc(C(=O)Nc3c(C)cccc3Cl)s2)cc(N2CCN(CCO)CC2)n1 [Dasatinib] (partner 0.075 µM)
Summary of the method: (§1)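 Medians of duplicate plates are given as relative viability. That measure is the nuclei count in treated wells divided by the count in vehicle wells. Counts were taken on 4× images of lung cancer cell lines in 1536-well plates, 5 days after pin-tool dosing the day after seeding with one drug alone or a fixed anchor-drug dose plus five library-drug doses (not always all listed) in √10 steps.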

[2] = compound: CN(C)CC1=CC(=CC=C1)N=C(C2=CC=CC=C2)C3=C(NC4=C3C=CC(=C4)C(=O)N(C)C)O + CC(C)C[C@H](NC(=O)[C@H](Cc1ccccc1)NC(=O)c1cnccn1)B(O)O [Bortezomib] (partner 0.002 µM)
Summary of the method: as §1

[3] = compound: CN(C)CC1=CC(=CC=C1)N=C(C2=CC=CC=C2)C3=C(NC4=C3C=CC(=C4)C(=O)N(C)C)O + CC(=O)c1c(C)c2cnc(Nc3ccc(N4CCNCC4)cn3)nc2n(C2CCCC2)c1=O [Palbociclib] (partner 0.5 µM)
Summary of the method: as §1

[4] = compound: CN(C)CC1=CC(=CC=C1)N=C(C2=CC=CC=C2)C3=C(NC4=C3C=CC(=C4)C(=O)N(C)C)O + Cc1nc(NC(=O)N2CCC[C@H]2C(N)=O)sc1-c1ccnc(C(C)(C)C(F)(F)F)c1 [Alpelisib] (partner 2 µM)
Summary of the method: as §1

Row | Cell Line | relative viability ([1]; first compound 0.08 µM) | relative viability ([1]; first compound 0.253 µM) | relative viability ([1]; first compound 0.8 µM) | relative viability ([1]; first compound 2.53 µM) | relative viability ([1]; first compound 8 µM) | relative viability ([2]; first compound 0.08 µM) | relative viability ([2]; first compound 0.253 µM) | relative viability ([2]; first compound 0.8 µM) | relative viability ([2]; first compound 2.53 µM) | relative viability ([2]; first compound 8 µM) | relative viability ([3]; first compound 0.08 µM) | relative viability ([3]; first compound 0.253 µM) | relative viability ([3]; first compound 0.8 µM) | relative viability ([3]; first compound 2.53 µM) | relative viability ([3]; first compound 8 µM) | relative viability ([4]; first compound 0.08 µM) | relative viability ([4]; first compound 0.253 µM) | relative viability ([4]; first compound 0.8 µM) | relative viability ([4]; first compound 2.53 µM) | relative viability ([4]; first compound 8 µM)
1 | NCI-H520 | 0.189 | 0.197 | 0.183 | 0.162 | 0.165 | 0.593 | 0.455 | 0.651 | 0.658 | 0.552 | 0.234 | 0.2 | 0.214 | 0.195 | 0.173 | 0.865 | 0.871 | 0.825 | 0.725 | 0.656
2 | NCI-H1793 | 0.438 | 0.387 | – | 0.425 | 0.411 | – | – | – | – | – | 0.27 | 0.363 | 0.326 | 0.329 | 0.351 | 0.633 | 0.886 | 0.58 | 0.812 | 0.814
3 | NCI-H2405 | 0.206 | 0.222 | 0.237 | 0.204 | 0.183 | 0.976 | 1.02 | 0.976 | 0.954 | 0.951 | 0.545 | 0.562 | 0.513 | 0.467 | 0.478 | 0.87 | 0.713 | 0.889 | 0.721 | 0.654
4 | HCC-15 | 0.613 | 0.602 | 0.652 | 0.643 | 0.662 | 0.984 | 0.956 | 1.08 | 1.03 | 1.12 | 0.706 | 0.724 | 0.74 | 0.711 | 0.752 | 0.947 | 0.802 | 0.927 | 0.937 | 0.954
5 | NCI-H1975 | 0.372 | 0.364 | 0.341 | 0.348 | 0.31 | 0.444 | 0.381 | 0.319 | 0.326 | 0.381 | 0.646 | 0.398 | 0.456 | 0.574 | 0.339 | 0.632 | 0.646 | 0.545 | 0.553 | 0.471
6 | NCI-H1755 | 0.487 | 0.45 | 0.374 | 0.402 | 0.348 | 0.888 | 0.932 | 0.93 | 0.817 | 0.972 | 0.438 | 0.45 | 0.426 | 0.452 | 0.439 | 0.903 | 0.91 | 0.916 | 0.867 | 0.853
7 | NCI-H2342 | 0.281 | 0.399 | 0.287 | 0.329 | 0.338 | – | – | – | – | – | 0.519 | 0.528 | 0.549 | 0.547 | 0.605 | – | – | – | – | –
8 | COR-L 105 | 0.394 | 0.369 | 0.307 | 0.314 | 0.328 | 0.767 | 0.889 | 0.586 | 0.761 | 0.753 | 0.407 | 0.4 | 0.362 | 0.379 | 0.407 | 0.844 | 0.892 | 1.01 | 0.813 | 0.808
9 | PC-14 | 0.289 | 0.273 | 0.324 | 0.247 | 0.197 | 0.989 | 0.839 | 0.89 | 0.767 | 1.06 | 0.474 | 0.412 | 0.635 | 0.614 | 0.537 | 0.92 | 0.865 | 0.962 | 0.924 | 0.837
10 | NCI-H2126 | 0.717 | 0.676 | 0.631 | 0.607 | 0.635 | 1.14 | 1.08 | 1.13 | 1.07 | 1.1 | 0.373 | 0.362 | 0.286 | 0.363 | 0.36 | 0.806 | 0.784 | 0.751 | 0.762 | 0.779
11 | NCI-H1395 | 0.402 | 0.373 | 0.455 | 0.433 | 0.399 | – | – | – | – | – | 0.617 | 0.612 | 0.698 | 0.544 | 0.602 | 1.04 | 0.948 | 1.1 | 0.87 | 0.964
12 | NCI-H1648 | – | – | – | – | – | – | – | – | – | – | 0.274 | 0.276 | – | 0.365 | 0.315 | – | – | – | – | –
13 | NCI-H596 | 0.575 | 0.648 | 0.628 | 0.618 | 0.602 | 1.05 | 1.17 | 1.07 | 1.11 | 1.26 | – | – | – | – | – | 0.504 | 0.491 | 0.459 | 0.536 | 0.447
14 | A549 | – | – | – | – | – | – | – | – | – | – | – | – | – | – | – | 0.77 | 0.921 | 0.883 | 0.711 | 0.592
15 | LCLC-103H | 0.482 | 0.487 | 0.435 | 0.42 | 0.497 | 1.14 | 1.09 | 0.976 | 0.91 | 0.979 | 0.255 | 0.425 | 0.558 | 0.449 | 0.458 | 0.987 | 0.923 | 0.938 | 0.876 | 0.98
16 | EMC-BAC-2 | 0.358 | 0.388 | 0.308 | 0.348 | 0.318 | 1.09 | 1.08 | 1.09 | 1.05 | 1.01 | 0.561 | 0.533 | 0.511 | 0.494 | 0.542 | 0.763 | 0.743 | 0.71 | 0.738 | 0.67
17 | EBC-1 | – | – | – | – | – | 0.551 | 0.632 | 0.605 | 0.737 | 0.598 | – | – | – | – | – | 0.958 | 0.891 | 1.06 | 0.917 | 0.816
18 | NCI-H1915 | 0.365 | 0.369 | 0.318 | 0.323 | 0.292 | 0.976 | 1.02 | 0.985 | 0.923 | 0.956 | 0.533 | 0.528 | 0.555 | 0.537 | 0.48 | 1.12 | 1.05 | 1.11 | 1.05 | 1.02
19 | NCI-H2347 | 0.347 | 0.326 | 0.293 | 0.252 | 0.2 | 0.828 | 1.22 | 0.83 | 1.17 | 1.12 | 0.428 | 0.389 | 0.445 | 0.456 | 0.518 | 1.02 | 0.983 | 1.07 | 1.08 | 1.04
